Values quoted from earlier work, collected in patent US20120245518A1, “PHARMACEUTICAL COMPOSITION FOR THE TREATMENT OF BLADDER DISORDERS” (Ritcher Gedeon NYRT., priority 2009, published 2012).

Tested on: matrix metalloproteinases, particularly the MMP-9

sodium hyaluronate
inhibitory effect on matrix metalloproteinases, particularly MMP-9: does not show the latter effect
